The values below come from patent US11332477B2, “Nitrogen containing heterocycle substituted benzoxazine oxazolidinone compound and preparation method and use thereof” (INSTITUTE OF MATERIA MEDICA, CHINESE ACADEMY OF MEDICAL …, priority 2017, dated 2022).

Data set [1] concerns Vero cells. Nature of the data set: Cytotoxicity test (MTT). The following applies: Chlorocebus sabaeus; Vero cells, MTT, 48 hours of incubation, highest concentration 64 μg/mL; read-out: IC50. The class given is cell-based.
The subject of data set [2] is Mycobacterium tuberculosis H37Rv. Briefly: Anti-tuberculosis activity test in vitro (Microplate Alamar Blue Assay, MABA). The class given is cell-based. The following applies: M. tuberculosis H37Rv, MABA, 7H9 medium, method says MIC90 was calculated, read-out: MIC.
For data set [3], the system named is mitochondrial protein synthesis. Briefly: Activity of inhibiting mitochondrial protein synthesis. The class given is biochemical. The following applies: mitochondrial protein synthesis inhibition, Table 3. The procedure:
The experimental steps were carried out according to the literature (Antimicrobial Agents and Chemotherapy, 2006, 50 (6), 2042-2049).

Converted amounts (≈) assume the structure as drawn. Where only a bound is given, the exact number is not on record here.

The compound `O=C(NC[C@@H]1OC(=O)N2c3cc(F)c(N4CCSCC4)cc3OC[C@@H]12)c1ccncc1` [Compound 10, N-(((3S,3aS)-8-Fluoro-1-oxo-7-thiomorpholino-3a,4-dihydro-1H,3H-benzo[b]oxazolo[3,4-d][1,4]oxazin-3-yl)methyl)isonicotinamide] had a melting point of 135 to 137 °C. Further, the IC50 in data set [1] was over 64 µg/mL. The MIC in data set [2] was 0.16 µg/mL (≈ 0.36 µM). The IC50 in data set [3] is over 100 µg/mL.

Turning to `O=C(NC[C@H]1OC(=O)N2c3cc(F)c(N4CCSCC4)cc3OC[C@H]12)C1CCC1` [Compound 29, N-(((3R,3aR)-8-Fluoro-1-oxo-7-thiomorpholino-3a,4-dihydro-1H,3H-benzo[b]oxazolo[3,4-d][1,4]oxazin-3-yl)methyl)cyclobutane carboxamide], the melting point fell in the range of 183 to 185 °C. In addition, the IC50 in data set [1] is over 64 µg/mL. Also, the MIC in data set [2] was 0.219 µg/mL (≈ 0.52 µM). The same compound came in with an IC50 in data set [3] of over 100 µg/mL.

Compound `O=C(NC[C@@H]1OC(=O)N2c3cc(F)c(N4CCSCC4)cc3OC[C@@H]12)C1CC1` [Compound 6, N-(((3S,3aS)-8-Fluoro-1-oxo-7-thiomorpholino-3a,4-dihydro-1H,3H-benzo[b]oxazolo[3,4-d][1,4]oxazin-3-yl)methyl)cyclopropanecarboxamide] yielded a melting point of 209 to 211 °C. Moreover, the IC50 in data set [1] was over 64 µg/mL. Besides, the MIC in data set [2] was 0.034 µg/mL (≈ 0.0834 µM). In data set [3], the IC50 is over 100 µg/mL.

Consider `CC(=O)NC[C@@H]1OC(=O)N2c3cc(F)c(N4CC[S+]([O-])CC4)cc3OC[C@@H]12` [Compound 23, N-(((3S,3aS)-8-Fluoro-1-oxo-7-(1-oxidothiomorpholino)-3a,4-dihydro-1H,3H-benzo[b]oxazolo[3,4-d][1,4]oxazin-3-yl)methyl)acetamide], for which the melting point was in the range of 214 to 216 °C. Further, the IC50 in data set [1] was over 64 µg/mL. Further, in data set [2], the MIC was 0.442 µg/mL (≈ 1.11 µM). The IC50 in data set [3] stood at 60.57 µg/mL (≈ 152 µM).

Compound `CC(C)C(=O)NC[C@@H]1OC(=O)N2c3cc(F)c(N4CCSCC4)cc3OC[C@@H]12` [Compound 5, N-(((3S,3aS)-8-Fluoro-1-oxo-7-thiomorpholino-3a,4-dihydro-1H,3H-benzo[b]oxazolo[3,4-d][1,4]oxazin-3-yl)methyl)isobutyramide] gave a melting point of 193 to 195 °C. The concentration for half-maximal inhibition (IC50) in data set [1] is over 64 µg/mL. Further, the minimum inhibitory concentration (MIC) in data set [2] is 0.095 µg/mL (≈ 0.232 µM). Also, the IC50 in data set [3] is over 100 µg/mL.

The compound `O=C1O[C@@H](CNc2ccon2)[C@@H]2COc3cc(N4CCSCC4)c(F)cc3N12` [Compound 9, (3S,3aS)-8-Fluoro-3-((isoxazol-3-ylamino)methyl)-7-thiomorpholino-3a,4-dihydro-1H,3H-benzo[b]oxazolo[3,4-d][1,4]oxazin-1-one] had a melting point of 148 to 150 °C. Besides, in data set [1], the IC50 is over 64 µg/mL. In addition, the MIC in data set [2] was 0.025 µg/mL (≈ 0.0615 µM). In data set [3], the IC50 is over 100 µg/mL.

On to `CC(=O)NC[C@@H]1OC(=O)N2c3cc(F)c(N4CCSCC4)cc3OC[C@@H]12` [Compound 4, N-(((3S,3aS)-8-Fluoro-1-oxo-7-thiomorpholino-3a,4-dihydro-1H,3H-benzo[b]oxazolo[3,4-d][1,4]oxazin-3-yl)methyl)acetamide], for which the IC50 in data set [1] was over 64 µg/mL; in data set [3], 99.39 µg/mL (≈ 261 µM). Also, in data set [2], the MIC was 0.044 µg/mL (≈ 0.115 µM).

Take `O=C(NC[C@@H]1OC(=O)N2c3cc(F)c(N4CCSCC4)cc3OC[C@@H]12)C1CCC1` [Compound 7, N-(((3S,3aS)-8-Fluoro-1-oxo-7-thiomorpholino-3a,4-dihydro-1H,3H-benzo[b]oxazolo[3,4-d][1,4]oxazin-3-yl)methyl)cyclobutanecarboxamide]: the melting point lay within 176 to 178 °C. In addition, the IC50 in data set [1] is over 64 µg/mL. Also, the MIC in data set [2] is 0.03 µg/mL (≈ 0.0712 µM). Further, the IC50 in data set [3] worked out at 53.69 µg/mL (≈ 127 µM).

As for `CC(=O)NC[C@H]1OC(=O)N2c3cc(F)c(N4CCSCC4)cc3OC[C@H]12` [Compound 28, N-(((3R,3aR)-8-Fluoro-1-oxo-7-thiomorpholino-3a,4-dihydro-1H,3H-benzo[b]oxazolo[3,4-d][1,4]oxazin-3-yl)methyl)acetamide], the IC50 in data set [1] is over 64 µg/mL; in data set [3], over 100 µg/mL. Moreover, the MIC in data set [2] was 0.232 µg/mL (≈ 0.608 µM).

`O=C(NC[C@@H]1OC(=O)N2c3cc(F)c(N4CCSCC4)cc3OC[C@@H]12)c1cnccn1` [Compound 11, N-(((3S,3aS)-8-Fluoro-1-oxo-7-thiomorpholino-3a,4-dihydro-1H,3H-benzo[b]oxazolo[3,4-d][1,4]oxazin-3-yl)methyl)pyrazine-2-carboxamide]: the melting point is 212 to 214 °C. Further, in data set [1], the IC50 turned out to be 40.7 µg/mL (≈ 91.3 µM). Moreover, in data set [2], the MIC is 0.115 µg/mL (≈ 0.258 µM). In addition, the IC50 in data set [3] is over 100 µg/mL.

On to `NC[C@@H]1OC(=O)N2c3cc(F)c(N4CCSCC4)cc3OC[C@@H]12` [Compound 1, (3S,3aS)-3-(Aminomethyl)-8-fluoro-7-thiomorpholino-3a, 4-dihydro-1H,3H-benzo[b]ox azolo[3,4-d][1,4]oxazin-1-one], for which the melting point lay within 155 to 157 °C. In addition, the IC50 in data set [1] came out at 36 µg/mL (≈ 106 µM). In data set [2], the MIC was 0.029 µg/mL (≈ 0.0854 µM). The same compound registered an IC50 in data set [3] of 75.51 µg/mL (≈ 222 µM).

`O=C1O[C@@H](Cn2ccnn2)[C@@H]2COc3cc(N4CCSCC4)c(F)cc3N12` [Compound 12, (3S,3aS)-3-((1H-1,2,3-Triazol-1-yl)methyl)-8-fluoro-7-thiomorpholino-3a,4-dihydro-1H,3H-benzo[b]oxazolo[3,4-d][1,4]oxazin-1-one] yielded a melting point of 223 to 225 °C. The IC50 in data set [1] was over 64 µg/mL. The MIC in data set [2] is 0.227 µg/mL (≈ 0.58 µM). Moreover, the IC50 in data set [3] is over 100 µg/mL.

`O=C1O[C@H](CNc2ccon2)[C@H]2COc3cc(N4CCSCC4)c(F)cc3N12` [Compound 31, (3R,3aR)-8-Fluoro-3-((isoxazol-3-ylamino)methyl)-7-thiomorpholino-3a,4-dihydro-1H, 3H-benzo[b]oxazolo[3,4-d][1,4]oxazin-1-one] had a melting point of 149 to 150 °C. Moreover, the IC50 in data set [1] was over 64 µg/mL. Further, in data set [2], the MIC is 0.123 µg/mL (≈ 0.303 µM). In data set [3], this compound gave an IC50 of over 100 µg/mL.

As for `COC(=O)NC[C@@H]1OC(=O)N2c3cc(F)c(N4CCSCC4)cc3OC[C@@H]12` [Compound 8, Methyl (((3S,3aS)-8-Fluoro-1-oxo-7-thiomorpholino-3a,4-dihydro-1H,3H-benzo[b]oxazolo[3,4-d][1,4]oxazin-3-yl)methyl)carbamate], the melting point is 155 to 156 °C. For the same compound, in data set [1], the IC50 was over 64 µg/mL. The MIC in data set [2] is 0.031 µg/mL (≈ 0.078 µM). Further, the IC50 in data set [3] was over 100 µg/mL.
